Test results reported in patent US20120122843A1, “Compounds and Their Use for Treatment of Amyloid Beta-Related Diseases” (ASTRAZENECA AB, priority 2010, published 2012).

What was measured:
Aβ42 = Aβ42 release from HEK cells stably expressing APPswe (MSD electrochemiluminescence); type: cell-based, Human; settings: 4-6 h incubation with test compound, Aβ42 secreted to cell medium
Experimental: The level of activity of the compounds on Aβ formation was tested using the following method:
Compounds were diluted in 100% DMSO and stored at […] prior to use. Human Embryonic Kidney (HEK) cell line stably expressing APP with the Swedish mutation (APPswe) were cultured using Dulbecco's Modified Eagles medium (DMEM) supplied with […] glucose, Na-pyruvate and GlutaMAX with 10% FBS, 100 U/ml penicillin-streptomycin (PEST) respectively, 1× non-essential amino acids (NEAA), […] Hepes, 100 μg/ml Zeocine. Cells at about 80% confluence were washed with PBS, detached from culture flasks using 1× Trypsin/EDTA diluted in PBS, re-suspended in cell media and plated in 384-well poly-d-lysine coated cell culture plates at about 10000-15000 cells/well, in 25 μL cell media. Optionally, cryo-preserved cells (frozen and stored at −140° C. in 90% cell media and 10% DMSO) were thawed, washed and plated as above. Next the cells were incubated for 15-24 h at 37° C. and 5% CO2, after which cell medium was changed. Fresh medium containing test compound diluted ×200 from prepared compound plate was added to the cells before further incubation for 4-6 hours at 37° C. and 5% CO2. After incubation with test compound the amount of Aβ peptides, including Aβ42, Aβ40, Aβ39, Aβ38 and Aβ37, as well as total Aβ levels, secreted to cell medium was analyzed using the electrochemiluminescence assay technology from Meso Scale Discovery (MSD), in combination with specific antibodies raised against the different Aβ peptides. Aβ42, Aβ40 and Aβ38 antibodies were purchased from MSD and Aβ37 and Aβ39 were made in house. Total Aβ was measured using a combination of 6E10 and 4G8 anti Aβ antibodies from MSD. Potential cytotoxic effects of the compounds were usually assayed by measuring the ATP content (ViaLight) from cell lysate.

Notch = assay: Release and translocation of Notch intracellular domain into the nucleus, HEK/AENotch cells (NICD immunostaining, ImageXpress); type: cell-based, Human; settings: 3 μM Lactacystin, 4-6 h incubation, nucleus/cytosol NICD fluorescence ratio
Experimental: The level of activity of the compounds on release and translocation of Notch intracellular domain into the cell nucleus was tested using the following method:
Compounds were diluted in 100% DMSO and stored at […] prior to use. Human Embryonic Kidney cell line overexpressing Notchl-E-human-myc construct (referred to as HEK/AENotch) were cultured in T75 cm^2 or T225 cm^2 cell culture flasks using Dulbecco's Modified Eagles medium (DMEM) supplemented with […] glucose, Na-pyruvate and GlutaMAX with 10% FBS, 100 U/ml penicillin-streptomycin (PEST) respectively, 1× non-essential amino acids (NEAA), […] Hepes and 100 μg/ml Hygromycin. Cells at about 80% confluence were washed with PBS, detached from the flask bottom using 1× Trypsin/EDTA diluted in PBS, re-suspended in cell media and plated in 384-well plates at about 10000 cells/well, in 25 μL cell media. Optionally, cryo-preserved cells (frozen and stored at −140° C. in 90% cell media and 10% DMSO) were thawed, washed and plated as above. Next the cells were incubated for 15-24 h at 37° C. and 5% CO2, after which cell medium was replaced with fresh medium containing 3 μM Lactacystin and test compound diluted ×200 from prepared compound plate giving 0.5% final DMSO concentration, and the highest compound concentration typically 25 μM. Cells were then incubated 4-6 h with test compound before being fixed, washed and immunostained with NICD antibody (rabbit Notch 1 (C-20)). Image acquisition of cytosolic/membrane and nuclear fluorescence as well as subsequent analysis of the nucleus and cytosolic fluorescence ratio was carried out using ImageXpress. Potential cytotoxic effects of the compounds were usually assayed by analysis of nucleus area or cell number.

[1] = Homo sapiens, HEK293, HEK cells expressing APPswe

SMILES | IC50 (Aβ42; [1]) [nM] | IC50 (Aβ42; HEK cells expressing APPswe) [nM] | IC50 (Notch; Homo sapiens) [nM] | IC50 (Notch) [nM]
COc1nc(Nc2cc(C)c3c(n2)OC(C2CC2)CN(C)C3)ccc1-c1cnn(C)c1 (centres unmarked) [Example 13, 2-Cyclopropyl-N-(6-methoxy-5-(1-methyl-1H-pyrazol-4-yl)pyridin-2-yl)-4,6-dimethyl-2,3,4,5-tetrahydropyrido[3,2-f][1,4]oxazepin-8-amine] | 48 | – | > 5000 | –
COc1nc(Nc2ccc3c(n2)OC(C2CC2)CN(C)C3C)ccc1-c1cnn(C)c1 (single isomer, unassigned) [Example 18, 2-Cyclopropyl-N-(6-methoxy-5-(1-methyl-1H-pyrazol-4-yl)pyridin-2-yl)-4,5-dimethyl-2,3,4,5-tetrahydropyrido[3,2-f][1,4]oxazepin-8-amine] | – | 37 | – | > 7900
Cc1cn(-c2ccc(Nc3ccc4c(n3)O[C@H](c3ccccc3)CN(C)C4)nc2)cn1 [Example 14, (R)-4-Methyl-N-(5-(4-methyl-1H-imidazol-1-yl)pyridin-2-yl)-2-phenyl-2,3,4,5-tetrahydropyrido[3,2-f][1,4]oxazepin-8-amine] | 24 | – | > 50000 | –
COc1nc(Nc2ccc3c(n2)OC(CC(F)(F)F)CN(C)C3)ccc1-c1cnn(C)c1 (single isomer, unassigned; (-)) [Example 5, (−)-N-(6-Methoxy-5-(1-methyl-1H-pyrazol-4-yl)pyridin-2-yl)-4-methyl-2-(2,2,2-trifluoroethyl)-2,3,4,5-tetrahydropyrido[3,2-f][1,4]oxazepin-8-amine] | – | 21 | – | > 25000
COc1nc(Nc2cc(C)c3c(n2)OC(c2nc(C)cs2)CN(C)C3)ccc1-c1cnn(C)c1 (single isomer, unassigned) [Example 21, N-(6-Methoxy-5-(1-methyl-1H-pyrazol-4-yl)pyridin-2-yl)-4,6-dimethyl-2-(4-methylthiazol-2-yl)-2,3,4,5-tetrahydropyrido[3,2-f][1,4]oxazepin-8-amine] | – | 179 | – | –
COc1nc(Nc2ccc3c(n2)OC(c2ncccc2C)CN(C)C3)ccc1-c1cnn(C)c1 (centres unmarked) [Example 16, N-(6-Methoxy-5-(1-methyl-1H-pyrazol-4-yl)pyridin-2-yl)-4-methyl-2-(3-methylpyridin-2-yl)-2,3,4,5-tetrahydropyrido[3,2-f][1,4]oxazepin-8-amine] | 305 | – | – | –
COc1nc(Nc2ccc3c(n2)OC(C2CC2)CN(C)C3C)ccc1-c1cnn(C)c1 (single isomer, unassigned) [Example 19, 2-Cyclopropyl-N-(6-methoxy-5-(1-methyl-1H-pyrazol-4-yl)pyridin-2-yl)-4,5-dimethyl-2,3,4,5-tetrahydropyrido[3,2-f][1,4]oxazepin-8-amine] | – | 124 | – | –
COc1nc(Nc2ccc3c(n2)OC(c2nc(C)cs2)CN(C)C3)ccc1-c1cnn(C)c1 (single isomer, unassigned; (+)) [Example 10, (+)-N-(6-Methoxy-5-(1-methyl-1H-pyrazol-4-yl)pyridin-2-yl)-4-methyl-2-(4-methylthiazol-2-yl)-2,3,4,5-tetrahydropyrido[3,2-f][1,4]oxazepin-8-amine] | – | 226 | – | –
CN1Cc2ccc(Nc3ccc(-c4cnn(C)c4)cn3)nc2O[C@H](c2ccccc2)C1 [Example 15, (R)-4-Methyl-N-(5-(1-methyl-1H-pyrazol-4-yl)pyridin-2-yl)-2-phenyl-2,3,4,5-tetrahydropyrido[3,2-f][1,4]oxazepin-8-amine] | 137 | – | – | –

Further lines, with some results ahead:

IC50 (Aβ42; [1]) [nM] | IC50 (Aβ42; HEK cells expressing APPswe) [nM] | SMILES | IC50 (Notch; Homo sapiens) [nM] | IC50 (Notch) [nM]
60 | – | COc1nc(Nc2ccc3c(n2)OC(c2ccc(C)cn2)CN(C)C3)ccc1-c1cnn(C)c1 (centres unmarked) [Example 41, N-(6-Methoxy-5-(1-methyl-1H-pyrazol-4-yl)pyridin-2-yl)-4-methyl-2-(5-methylpyridin-2-yl)-2,3,4,5-tetrahydropyrido[3,2-f][1,4]oxazepin-8-amine] | > 25000 | –
55 | – | Cc1ncn(-c2ccc(Nc3ccc4c(n3)OC(c3cccc(Cl)c3)CN(C)C4)nc2)n1 (centres unmarked) [Example 23, 2-(3-Chlorophenyl)-4-methyl-N-(5-(3-methyl-1H-1,2,4-triazol-1-yl)pyridin-2-yl)-2,3,4,5-tetrahydropyrido[3,2-f][1,4]oxazepin-8-amine] | > 2500 | –
61 | – | Cc1cn(-c2ccc(Nc3ccc4c(n3)OC(CC(F)(F)F)CN(C)C4)nc2C#N)cn1 (centres unmarked) [Example 48] | > 25000 | –
– | 7 | COc1nc(Nc2ccc3c(n2)OC(c2nc(C)cs2)C(C)N(C)C3)ccc1-c1cnn(C)c1 (single isomer, unassigned) [Example 30, N-(6-Methoxy-5-(1-methyl-1H-pyrazol-4-yl)pyridin-2-yl)-3,4-dimethyl-2-(4-methylthiazol-2-yl)-2,3,4,5-tetrahydropyrido[3,2-f][1,4]oxazepin-8-amine] | – | > 25000
81 | – | Cc1ncn(-c2ccc(Nc3ccc4c(n3)OC(c3ccc(Cl)cc3)CN(C)C4)nc2)n1 (centres unmarked) [Example 24, 2-(4-Chlorophenyl)-4-methyl-N-(5-(3-methyl-1H-1,2,4-triazol-1-yl)pyridin-2-yl)-2,3,4,5-tetrahydropyrido[3,2-f][1,4]oxazepin-8-amine] | > 7900 | –
493 | – | COc1nc(Nc2ccc3c(n2)OC(CC(F)(F)F)CN(C)C3)ccc1-c1ccc(=O)n(C)c1 (single isomer, unassigned) [Example 43, 5-(2-Methoxy-6-(4-methyl-2-(2,2,2-trifluoroethyl)-2,3,4,5-tetrahydropyrido[3,2-f][1,4]oxazepin-8-ylamino)pyridin-3-yl)-1-methylpyridin-2(1H)-one] | – | –
18 | – | COc1nc(Nc2ccc3c(n2)O[C@H](c2nc(C)cs2)CN(C)C3)c(F)cc1-c1cnn(C)c1 [Example 54, (2S)—N-[3-Fluoro-6-methoxy-5-(1-methylpyrazol-4-yl)-2-pyridyl]-4-methyl-2-(4-methylthiazol-2-yl)-3,5-dihydro-2H-pyrido[3,2-f][1,4]oxazepin-8-amine] | 6490 | –
33 | – | COc1nc(Nc2ccc3c(n2)OC(CC(F)(F)F)CN(C)C3)ccc1-c1ccnc(C)n1 (centres unmarked) [Example 46, N-[6-Methoxy-5-(2-methylpyrimidin-4-yl)-2-pyridyl]-4-methyl-2-(2,2,2-trifluoroethyl)-3,5-dihydro-2H-pyrido[3,2-f][1,4]oxazepin-8-amine] | > 25000 | –
– | 374 | COc1nc(Nc2ccc3c(n2)OC(CC(F)(F)F)CN(C)C3)ccc1-c1ccc(=O)n(C)c1 (single isomer, unassigned) [Example 44, 5-(2-Methoxy-6-(4-methyl-2-(2,2,2-trifluoroethyl)-2,3,4,5-tetrahydropyrido[3,2-f][1,4]oxazepin-8-ylamino)pyridin-3-yl)-1-methylpyridin-2(1H)-one] | – | –
38 | – | COc1nc(Nc2ccc3c(n2)O[C@H](c2ccccc2)CN(C)C3)ccc1-c1ccc(=O)n(C)c1 [Example 45, (R)-5-(2-Methoxy-6-(4-methyl-2-phenyl-2,3,4,5-tetrahydropyrido[3,2-f][1,4]oxazepin-8-ylamino)pyridin-3-yl)-1-methylpyridin-2(1H)-one] | – | –
3 | – | COc1nc(Nc2ccc3c(n2)OC(CC(F)(F)F)CN(C)C3)ccc1-c1cnc(C)o1 (single isomer, unassigned) [Example 63, N-[6-Methoxy-5-(2-methyloxazol-5-yl)-2-pyridyl]-4-methyl-2-(2,2,2-trifluoroethyl)-3,5-dihydro-2H-pyrido[3,2-f][1,4]oxazepin-8-amine] | – | –
– | 4 | COc1nc(Nc2ccc3c(n2)OC(CC(F)(F)F)CN(C)C3)ccc1-c1cnc(C)o1 (single isomer, unassigned) [Example 64, N-[6-Methoxy-5-(2-methyloxazol-5-yl)-2-pyridyl]-4-methyl-2-(2,2,2-trifluoroethyl)-3,5-dihydro-2H-pyrido[3,2-f][1,4]oxazepin-8-amine] | – | –
